Laboratory results reported in paper PMC11256303 (ACS Omega, 2024).

target: α-amylase; assay: in vitro α-amylase inhibition; format: biochemical; settings: read-out: alpha-amylase IC50 ± SEM, standard acarbose

| Structure (SMILES) | IC50 [µM] |
| --- | --- |
| FC(F)(F)c1cccc(Nc2nc(/N=C/c3ccc(Cl)cc3Cl)ns2)c1 [Compound 15, (E)-3-((2,4-dichlorobenzylidene)amino)-N-(3-(trifluoromethyl)phenyl)-1,2,4-thiadiazol-5-amine] | 0.8 ± 0.05 |
| Clc1ccc(/C=N\c2nsc(Nc3ccc(Cl)c(Cl)c3)n2)cc1Cl [Compound 6] | 1.9 ± 0.1 |
| COc1ccccc1/C=N\c1nsc(Nc2ccc(Cl)c(Cl)c2)n1 [Compound 8] | 16.2 ± 0.3 |
| COc1cccc(/C=N\c2nsc(Nc3ccc(Cl)c(Cl)c3)n2)c1 [Compound 5] | 17.7 ± 0.3 |
| Clc1ccc(Nc2nc(/N=C\c3ccc(Br)cc3)ns2)cc1Cl [Compound 7] | 20.1 ± 0.4 |
| Cc1ccc(/C=N\c2nsc(Nc3ccc(Cl)c(Cl)c3)n2)cc1 [Compound 4] | 15.3 ± 0.3 |
| FC(F)(F)c1cccc(Nc2nc(/N=C\c3ccc(Cl)cc3)ns2)c1 [Compound 13] | 1.5 ± 0.1 |
